How the values were obtained:
pigs = details: diets with 0.5% or 1% benzoic acid, 32 + 91 days; statement covers all animals
Method: Room temperature was initially 27° C. and was lowered weekly by about 2° C. until 21-22° C.

growing-fattening pig [1] = assay: Bone mineralization: ash content of dried metacarpal bone after incineration, after long-term feeding; assay type: in vivo; details: for Mineralization (% of ash in DM), right metacarpals: mean ± SD of 32 measurements
Method: The term “bone mineralization” as used herein denotes the percentage of ash after incineration of the bone compared to the dried bone matter (DM). Dry matter is defined as the weight of the bone sample after 24 hour in a drying oven compared to the initial weight of the sample.
(§1) Environment humidity percentage throughout the experiment was 50%. […] Both diets were in mash form.
(§2) All the diets were given in a mash form.
(§3) At the end of the observation all the animals were slaughtered after electronarcosis for the determination of the bone resistance and mineralization. The collected bones were the right internal and external metacarpal. Samples were prepared from each of the collected bones immediately after slaughter. After careful removal of the soft tissue, a diaphysis section was obtained by sawing each bone. The obtained sections of about 3.5-cm long were immediately subjected to compression in order to determine the force in Newton necessary to break them (maximal-breaking force at the fracture point). The measurements were performed with a LR10K compression machine, using a XLC/10K/A1 force captor and a compression device TH23-196/AL (Lloyd Instruments, Fareham, UK). The broken bones were then dried in a drying oven at 105° C. during 24 hours and the dry matter (DM) was used for the determination of ash content, which was measured after 48 h incineration at 550° C. in a muffle furnace.
(§4) Statistical treatment of the results involved the calculation of the mean and of the standard deviation as well as a two-factor hierarchical analysis of variance. The mathematical model was: Yijk=μ+Ai+Bij+Zijk, where μ is the mean, Ai is the diet effect, Bij is the combined effect of the diet and animal or pen and Zijk is the residual term. The analysis of variance was followed by a Duncan multiple range test when a significant Ai effect without Bij effect was observed (Statistical methods, 8th edition, Iowa University Press, Ames, Snedecor and Cochran, 1989). These calculations were performed using the Statistical Analysis System (SAS, 1990).

growing-fattening pig [2] = assay: Bone resistance: maximal breaking force of metacarpal diaphysis sections under compression, after long-term feeding; assay type: in vivo; details: for Resistance (Newton at the breaking point), right metacarpals: mean ± SD
Source text: The term “bone resistance” as used herein denotes the maximal force in measured in Newton (N) necessary to break the bone determined by a compression machine.
as §1, §2, §3, §4

[3] = group B2: 0% 32 days, then 1% benzoic acid 91 days
[4] = group C2: 0.5% 32 days, then 0.5% benzoic acid 91 days
[5] = group D2: 0.5% 32 days, then 1% benzoic acid 91 days

Q: O=C(O)c1ccccc1 [benzoic acid] was tested. Which “Natural mortality during the experiment” value (pigs) did it give?
A: no natural mortality was observed

Q: What about the “Symptoms of illness during the experiment” value (pigs) of the same molecule?
A: did not present any symptoms of illness

Q: What about the “Mineralization relative to controls (A2 = 100)” value (growing-fattening pig [1]; [3]) of the same molecule?
A: (102)

Q: And the “Mineralization (% of ash in DM), right metacarpals” value (“Mineralization (% of ash in DM)” below) (growing-fattening pig [1]; [3])?
A: 60.26 ± 1.31^(1)d % of ash in DM

Q: What about the “Ash content of the bones versus controls (in words)” value (growing-fattening pig [1]; group C2 (0.5% benzoic acid throughout), P<0.07) of the same molecule?
A: numerically higher

Q: And the “Mineralization relative to controls (A2 = 100)” value (growing-fattening pig [1]; [4])?
A: (102)

Q: What about the “Mineralization (% of ash in DM)” value (growing-fattening pig [1]; [4]) of the same molecule?
A: 60.06 ± 1.33^(1)cd* % of ash in DM

Q: And the “Mineralization relative to controls (A2 = 100)” value (growing-fattening pig [1]; [5])?
A: (102)

Q: What about the “Mineralization (% of ash in DM)” value (growing-fattening pig [1]; [5]) of the same molecule?
A: 60.14 ± 1.09^(1)d % of ash in DM

Q: What about the “Ash content of the bones versus controls (in words)” value (growing-fattening pig [1]; groups B2 and D2 (1% benzoic acid during 91 days)) of the same molecule?
A: significantly higher

Q: What about the “Bone resistance versus controls (in words)” value (growing-fattening pig [2]; all the supplemented groups (B2, C2, D2)) of the same molecule?
A: significantly increased

Q: What about the “Resistance (Newton at the breaking point), right metacarpals” value (“Resistance … right metacarpals” for short) (growing-fattening pig [2]; group B2: 0% benzoic acid in diet 32 days, then 1% for 91 days) of the same molecule?
A: 625 ± 163^(2)bd Newton

Q: And the “Resistance … right metacarpals” value (growing-fattening pig [2]; group C2: 0.5% benzoic acid in diet 32 days, then 0.5% for 91 days)?
A: 621 ± 172^(2)d Newton

Q: What about the “Resistance … right metacarpals” value (growing-fattening pig [2]; group D2: 0.5% benzoic acid in diet 32 days, then 1% for 91 days) of the same molecule?
A: 597 ± 192^(2)d Newton

Reference: patent publication US7674826B2, “Use of a nutraceutical compositions in animal feed” (DSM IP Assets B.V., priority 2006, dated 2010)
